# From US11702422B2, “Imidazopyridazines as modulators of IL-17” (Janssen Pharmaceutica NV, priority 2020, dated 2023)
# Key:
# [1] = test system: IL-17A-induced G-CSF production in human normal keratinocyte (NHK); assay: NHK Assay: IL-17A-induced G-CSF production in human normal keratinocytes; type: cell-based; conditions: 24 h, adult normal human keratinocytes, IL-17A 5 ng/mL, simple average if tested more than once
# Outline: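 Inhibition of IL-17A-driven G-CSF release is measured in adult keratinocytes stimulated for 24 h at 37° C with 5 ng/mL human IL-17A that had been pre-incubated with compound for 1 h. IC50 comes from HTRF G-CSF levels; cell viability is checked in parallel by luminescent ATP assay.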
# [2] = target: IL-17A(FLAG-Tagged): IL-17RA(His-Tagged) (Homo sapiens, UniProt Q16552, K93Q); assay: IL-17A(FLAG-Tagged): IL-17RA(His-Tagged) Binding Disruption Eu-HTRF Assay; conditions: IL-17A/IL-17RA binding disruption, simple average if tested more than once
# Outline: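 IC50 comes from a one-site competition fit of the HTRF 665/620 nm ratio. Compound dilutions (2-fold, 22 points) were held 1 h rt with FLAG-tagged IL-17A dimer, then His-tagged IL-17RA plus Eu-cryptate anti-FLAG and D2 anti-His antibodies were added for 2 h rt.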
# Sequence of UniProt Q16552 (Q16552 with tags, fused parts or gaps K93Q): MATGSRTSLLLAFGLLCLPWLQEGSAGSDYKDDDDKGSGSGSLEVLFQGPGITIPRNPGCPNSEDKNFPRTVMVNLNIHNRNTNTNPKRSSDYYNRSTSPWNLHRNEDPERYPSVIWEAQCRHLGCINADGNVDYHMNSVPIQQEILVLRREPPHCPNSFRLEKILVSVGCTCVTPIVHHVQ
smiles,measurement,setting,value
"[2H]C([2H])([2H])C([2H])([2H])n1nccc1C(=O)N[C@H](c1cn2ncc([C@H](NC(=O)CCC(F)F)C3CC3)cc2n1)C1CCC(F)(F)CC1 [Example 282, N—((S)-(7-((R)-Cyclopropyl(4,4-difluorobutanamido)methyl)imidazo[1,2-b]pyridazin-2-yl)(4,4-difluorocyclohexyl)methyl)-1-(ethyl-d5)-1H-pyrazole-5-carboxamide]",IC50,"[1]; Homo sapiens, Keratinocyte",420 nM
same,IC50,[2],160 nM
"CC(C)n1nccc1C(=O)N[C@H](c1cn2ncc(C(NC(=O)CC(C)(C)O)C3CC3)cc2n1)C1CCC(F)(F)CC1 (single isomer, unassigned) [Example 137, N—((S)-(7-((S*)-Cyclopropyl(3-hydroxy-3-methylbutanamido)methyl)imidazo[1,2-b]pyridazin-2-yl)(4,4-difluorocyclohexyl)methyl)-1-isopropyl-1H-pyrazole-5-carboxamide]",IC50,[1],> 20000 nM
same,IC50,[2],14000 nM
"O=C(CCC(F)(F)F)N[C@@H](c1cnn2cc([C@@H](NC(=O)c3nonc3OCCF)C3CCC(F)(F)CC3)nc2c1)C1CC1 [Example 384, N—((S)-(7-((R)-Cyclopropyl(4,4,4-trifluorobutanamido)methyl)imidazo[1,2-b]pyridazin-2-yl)(4,4-difluorocyclohexyl)methyl)-4-(2-fluoroethoxy)-1,2,5-oxadiazole-3-carboxamide]",IC50,"[1]; Homo sapiens, Keratinocyte",31 nM
same,IC50,[2],66 nM
"O=C(CCC(F)(F)F)N[C@@H](c1cnn2cc([C@@H](NC(=O)c3nccc(C(F)(F)F)n3)C3CCC(F)(F)CC3)nc2c1)C1CC1 [Example 217, N—((S)-(7-((R)-Cyclopropyl(4,4,4-trifluorobutanamido)methyl)imidazo[1,2-b]pyridazin-2-yl)(4,4-difluorocyclohexyl)methyl)-4-(trifluoromethyl)pyrimidine-2-carboxamide]",IC50,"[1]; Homo sapiens, Keratinocyte",> 20000 nM
same,IC50,[2],4600 nM
"O=C(CCC(F)(F)F)N[C@@H](c1cnn2cc([C@@H](NC(=O)c3ncnn3CCCF)C3CCC(F)(F)CC3)nc2c1)C1CC1 [Example 47, N—((S)-(7-((R)-Cyclopropyl(4,4,4-trifluorobutanamido)methyl)imidazo[1,2-b]pyridazin-2-yl)(4,4-difluorocyclohexyl)methyl)-1-(3-fluoropropyl)-1H-1,2,4-triazole-5-carboxamide]",IC50,"[1]; Homo sapiens, Keratinocyte",640 nM
same,IC50,[2],180 nM
"COCCn1ncc(C(=O)N[C@H](c2cn3ncc([C@H](NC(=O)CCC(F)(F)F)C4CC4)cc3n2)C2CCC(F)(F)CC2)n1 [Example 64, N—((S)-(7-((R)-Cyclopropyl(4,4,4-trifluorobutanamido)methyl)imidazo[1,2-b]pyridazin-2-yl)(4,4-difluorocyclohexyl)methyl)-2-(2-methoxyethyl)-2H-1,2,3-triazole-4-carboxamide]",IC50,"[1]; Homo sapiens, Keratinocyte",2000 nM
same,IC50,[2],630 nM
"O=C(CCC(F)(F)F)N[C@@H](c1cnn2cc([C@@H](NC(=O)c3cnn(CCC(F)F)n3)C3CCC(F)(F)CC3)nc2c1)C1CC1 [Example 32, N—((S)-(7-((R)-Cyclopropyl(4,4,4-trifluorobutanamido)methyl)imidazo[1,2-b]pyridazin-2-yl)(4,4-difluorocyclohexyl)methyl)-2-(3,3-difluoropropyl)-2H-1,2,3-triazole-4-carboxamide]",IC50,"[1]; Homo sapiens, Keratinocyte",240 nM
same,IC50,[2],140 nM
"CC(CC(=O)N[C@@H](c1cnn2cc([C@@H](NC(=O)c3nonc3C3CC3)C3CCC(F)(F)CC3)nc2c1)C1CC1)C(F)(F)F (single isomer, unassigned) [Example 301, 4-Cyclopropyl-N—((S)-(7-((R)-cyclopropyl((S*)-4,4,4-trifluoro-3-methylbutanamido)methyl)imidazo[1,2-b]pyridazin-2-yl)(4,4-difluorocyclohexyl)methyl)-1,2,5-oxadiazole-3-carboxamide]",IC50,[1],56 nM
same,IC50,[2],53 nM
"O=C(CCC(F)(F)F)N[C@@H](c1cnn2cc([C@@H](NC(=O)c3cnnn3CC3CCC3(F)F)C3CCC(F)(F)CC3)nc2c1)C1CC1 (stereo partly drawn) [Example 91, N—((S)-(7-((R)-Cyclopropyl(4,4,4-trifluorobutanamido)methyl)imidazo[1,2-b]pyridazin-2-yl)(4,4-difluorocyclohexyl)methyl)-1-((2,2-difluorocyclobutyl)methyl)-1H-1,2,3-triazole-5-carboxamide]",IC50,"[1]; Homo sapiens, Keratinocyte",120 nM
same,IC50,[2],92 nM
"O=C(CC1CC(F)(F)C1)NC(c1cnn2cc([C@@H](NC(=O)c3cnnn3CCC(F)(F)F)C3CCC(F)(F)CC3)nc2c1)C1CC1 (single isomer, unassigned) [Example 72, N—((S)-(7-((S*)-Cyclopropyl(2-(3,3-difluorocyclobutyl)acetamido)methyl)imidazo[1,2-b]pyridazin-2-yl)(4,4-difluorocyclohexyl)methyl)-1-(3,3,3-trifluoropropyl)-1H-1,2,3-triazole-5-carboxamide]",IC50,[1],86 nM
same,IC50,[2],78 nM
"CO[C@@H](C)[C@@H](NC(=O)CC1CC(F)(F)C1)c1cnn2cc([C@@H](NC(=O)c3nonc3C)C3CCC(F)(F)CC3)nc2c1 [Example 323, N—((S)-(7-((1S,2S)-1-(2-(3,3-Difluorocyclobutyl)acetamido)-2-methoxypropyl)imidazo[1,2-b]pyridazin-2-yl)(4,4-difluorocyclohexyl)methyl)-4-methyl-1,2,5-oxadiazole-3-carboxamide]",IC50,"[1]; Homo sapiens, Keratinocyte",670 nM
same,IC50,[2],120 nM
"O=C(CCC(F)(F)F)N[C@@H](c1cnn2cc([C@@H](NC(=O)c3cnn(CC4CC(F)(F)C4)n3)C3CCC(F)(F)CC3)nc2c1)C1CC1 [Example 63, N—((S)-(7-((R)-Cyclopropyl(4,4,4-trifluorobutanamido)methyl)imidazo[1,2-b]pyridazin-2-yl)(4,4-difluorocyclohexyl)methyl)-2-((3,3-difluorocyclobutyl)methyl)-2H-1,2,3-triazole-4-carboxamide]",IC50,"[1]; Homo sapiens, Keratinocyte",200 nM
same,IC50,[2],130 nM
"Cc1nonc1C(=O)N[C@H](c1cn2ncc([C@H](NC(=O)CC3CC(F)(F)C3(F)F)C3CC3)cc2n1)C1CCC(F)(F)CC1 (single isomer, unassigned) [Example 324, N—((S)-(7-((R)-Cyclopropyl(2-((R*)-2,2,3,3-tetrafluorocyclobutyl)acetamido)methyl)imidazo[1,2-b]pyridazin-2-yl)(4,4-difluorocyclohexyl)methyl)-4-methyl-1,2,5-oxadiazole-3-carboxamide]",IC50,"[1]; Homo sapiens, Keratinocyte",300 nM
same,IC50,[2],61 nM
"CC(C)n1nccc1C(=O)N[C@H](c1cn2ncc(C(NC(=O)CC(C)(C)O)C3CC3)cc2n1)C1CCC(F)(F)CC1 (single isomer, unassigned) [Example 136, N—((S)-(7-((R*)-Cyclopropyl(3-hydroxy-3-methylbutanamido)methyl)imidazo[1,2-b]pyridazin-2-yl)(4,4-difluorocyclohexyl)methyl)-1-isopropyl-1H-pyrazole-5-carboxamide]",IC50,[1],790 nM
same,IC50,[2],400 nM
"CC(C)c1cc(C(=O)N[C@H](c2cn3ncc([C@H](NC(=O)CCC(F)(F)F)C4CC4)cc3n2)C2CCC(F)(F)CC2)ncn1 [Example 162, N—((S)-(7-((R)-Cyclopropyl(4,4,4-trifluorobutanamido)methyl)imidazo[1,2-b]pyridazin-2-yl)(4,4-difluorocyclohexyl)methyl)-6-isopropylpyrimidine-4-carboxamide]",IC50,"[1]; Homo sapiens, Keratinocyte",940 nM
same,IC50,[2],150 nM
